As usually defined, the EC50 is the concentration at which the effect is half-maximal. A higher EC50 goes with a less potent agent.

SMILES strings stand for the structures.

Test [1] concerns the target T1, Peroxisome proliferator-activated receptor alpha (Homo sapiens, UniProt Q07869).
T1 sequence (Q07869 whole entry): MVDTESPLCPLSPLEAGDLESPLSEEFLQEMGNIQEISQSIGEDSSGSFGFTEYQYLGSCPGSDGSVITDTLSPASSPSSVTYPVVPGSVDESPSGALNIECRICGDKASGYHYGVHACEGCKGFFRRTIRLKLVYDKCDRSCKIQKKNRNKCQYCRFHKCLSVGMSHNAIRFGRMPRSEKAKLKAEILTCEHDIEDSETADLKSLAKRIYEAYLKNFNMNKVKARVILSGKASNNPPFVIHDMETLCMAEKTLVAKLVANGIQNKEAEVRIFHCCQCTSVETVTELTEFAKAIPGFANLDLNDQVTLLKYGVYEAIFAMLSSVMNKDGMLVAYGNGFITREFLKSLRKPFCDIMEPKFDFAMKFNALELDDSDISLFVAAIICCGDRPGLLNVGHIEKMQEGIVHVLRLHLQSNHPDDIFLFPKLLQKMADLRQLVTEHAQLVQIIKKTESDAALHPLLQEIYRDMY
The test is described as follows: Effective concentration for human peroxisome proliferator-activated receptor alpha.

Test [2] concerns the target T2, Peroxisome proliferator-activated receptor delta (Homo sapiens, UniProt Q03181).
T2 sequence (Q03181 whole entry): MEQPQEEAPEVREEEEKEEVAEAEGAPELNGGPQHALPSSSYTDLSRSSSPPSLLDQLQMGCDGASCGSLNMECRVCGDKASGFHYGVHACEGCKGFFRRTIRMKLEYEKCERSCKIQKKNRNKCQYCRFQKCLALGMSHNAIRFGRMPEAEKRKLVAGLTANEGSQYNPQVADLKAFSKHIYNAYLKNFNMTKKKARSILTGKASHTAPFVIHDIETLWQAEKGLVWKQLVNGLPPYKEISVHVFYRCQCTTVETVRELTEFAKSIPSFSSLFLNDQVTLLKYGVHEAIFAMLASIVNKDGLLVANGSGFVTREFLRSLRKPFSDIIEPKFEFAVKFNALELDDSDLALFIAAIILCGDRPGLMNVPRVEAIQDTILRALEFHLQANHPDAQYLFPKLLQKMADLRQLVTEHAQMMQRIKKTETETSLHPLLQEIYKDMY
Kind of test: Effective concentration for human peroxisome proliferator-activated receptor delta.

Turning to `CCOC(Cc1ccc(OCC/C=C/c2ccccc2)cc1)C(=O)O` (single isomer, unassigned), the EC50 in test [1] was found to be 1100 nM; in test [2] it was 19000 nM. The matching figures for `CCOC(Cc1ccc(OC/C=C/c2ccccc2)cc1)C(=O)O` (single isomer, unassigned): 1600 nM and 18000 nM. Take `CCOC(Cc1ccc(OC/C=C/C#CC#C/C=C/COc2ccc(C[C@@H](OCC)C(=O)O)cc2)cc1)C(=O)O` (single isomer, unassigned): the results for the EC50 in test [1] and in test [2] were 3700 nM and 15000 nM, respectively. In the case of `CCO[C@@H](Cc1ccc(OC/C=C(/C)C#Cc2ccccc2)cc1)C(=O)O`, the EC50 in test [1] was determined as 300 nM; in test [2], 11000 nM. `CCO[C@H](Cc1ccc(OC/C=C/C#Cc2ccccc2)cc1)C(=O)O`: the EC50 is 70 nM in test [1] and 6900 nM in test [2].

Turning to `CCO[C@H](Cc1ccc(OC/C=C(/C)C#Cc2ccc(-c3ccc(C#C/C(C)=C/COc4ccc(C[C@@H](OCC)C(=O)O)cc4)cc3)cc2)cc1)C(=O)O`, the EC50 in test [1] was 1800 nM; in test [2], 4100 nM.

`CCO[C@@H](Cc1ccc(OCc2ccc(COc3ccc(C[C@H](OCC)C(=O)O)cc3)cc2)cc1)C(=O)O` had an EC50 in test [1] of 15000 nM. As to `CCOC(Cc1ccc(OCC#CCOc2ccc(C[C@@H](OCC)C(=O)O)cc2)cc1)C(=O)O` (single isomer, unassigned), the EC50 in test [1] worked out at 9600 nM.

Take `CCO[C@H](Cc1ccc(OC/C=C(\C)c2ccc(-c3ccc(/C(C)=C/COc4ccc(C[C@@H](OCC)C(=O)O)cc4)cc3)cc2)cc1)C(=O)O`: the EC50 in test [1] is 6700 nM; in test [2] it was 2100 nM. For the molecule `CCOC(Cc1ccc(OC/C=C/C#Cc2ccc(C#C/C=C/COc3ccc(C[C@@H](OCC)C(=O)O)cc3)cc2)cc1)C(=O)O` (single isomer, unassigned), the EC50 came out at 700 nM in test [1] and 2200 nM in test [2]. As to `CCOC(Cc1ccc(OC/C=C(\C)C#Cc2ccc(C#C/C(C)=C/COc3ccc(C[C@@H](OCC)C(=O)O)cc3)cc2)cc1)C(=O)O` (single isomer, unassigned), the EC50 in test [1] worked out at 1200 nM; in test [2] it was 1800 nM.

The molecule `CCO[C@H](Cc1ccc(OC/C=C(\C)C#Cc2ccc3c(c2)C(=O)c2cc(C#C/C(C)=C/COc4ccc(C[C@@H](OCC)C(=O)O)cc4)ccc2-3)cc1)C(=O)O` (stereo in doubt) gave an EC50 in test [1] of 2300 nM.

These data come from ChEMBL document CHEMBL1142023, “Structure-activity relationships of dimeric PPAR agonists” (Bioorg Med Chem Lett, 2005).
